Where two headings read alike, the source gives them in different places.
System: LPS-induced PGE2 release
Assay: Ex vivo LPS-induced PGE2 release in whole blood, multiple oral doses for 28 days (Example 2, Part 1)
Set-up: species or system human
Conditions: for EAUC0-24 h, Difference in LS means (Compound I − placebo) / EAUC0-24 h, LS means / ETmax (time to reach maximum effect), Median / ETmax, median difference from placebo / Eavg0-24 h, Difference in LS means (Compound I − placebo) / Epeak, Difference in LS means (Compound I − placebo) / Emax at 25 mg / Emax at 75 mg / Emax at 130 mg / inhibition at 25 mg / inhibition at 75 mg / inhibition at 130 mg: healthy subjects; for Emax at 25 mg / Emax at 75 mg / Emax at 130 mg / inhibition at 25 mg / inhibition at 75 mg / inhibition at 130 mg: Homo sapiens, po; for Emax at 25 mg / Emax at 75 mg / Emax at 130 mg: read-out: Epeak (maximum effect), LS means; for inhibition at 25 mg / inhibition at 75 mg / inhibition at 130 mg: read-out: Eavg0-24 h (average PGE2 inhibition over 24 hours), LS means
Method: Part 1 consisted of a MAD, double-blind, sequential-group study in healthy subjects. Twenty-four adult male and female subjects were recruited into 3 cohorts. Subjects were enrolled in a sequential manner in cohorts of 8, each randomized in a ratio of 6:2, to receive Compound I or placebo, respectively, for a duration of 28 days. Three dose levels of Compound I (25, 75 and 130 mg) were studied in Cohorts A, B and C, respectively. For each cohort in Part 1, the planned Compound I, qd dosing occurred in the fasted state in the morning on Days 1 to 28, both inclusive. Subjects in each cohort started dosing on the same day, with no less than 5 minutes dose interval between subjects on Day 1.
Concentrations below the limit of quantification were treated as ½ the lower limit of quantification for subsequent calculations.
Time points where unstimulated PGE2 levels were 3 times greater than the mean of unstimulated PGE2 and greater than or equal to half of the baseline for a particular subject were not included in the calculation of these parameters.
Baseline is the mean of Day −1 and pre-dose LPS stimulated PGE2.
Abbreviations: CI=confidence interval; EAUC0-24h=area under the effect-time curve from time zero to 24 hours postdose; Eavg0-24h=the average PGE2 inhibition over 24 hours; Epeak=maximum effect; ETmax=time to reach maximum effect; LS=least squares; N=number of subjects; PGE2=prostaglandin E2; qd=once daily.
^a Median, median difference from placebo and approximate 95% CI.

CC(C)(C)C(=O)NCc1ccc(Cl)c(-c2nn(-c3ccc(C(F)(F)F)cc3)c(=O)[nH]2)c1 [Compound I, N-(4-chloro-3-(5-oxo-1-(4-(trifluoromethyl)phenyl)-4,5-dihydro-1H-1,2,4-triazol-3-yl)benzyl)pivalamide]
EAUC0-24 h, Difference in LS means (Compound I − placebo) (Day 1, 25 mg qd): 1225 % · h
EAUC0-24 h, LS means (Day 1, 25 mg qd): 1562 % · h
ETmax (time to reach maximum effect), Median (Day 1, 25 mg qd): 6.00 h
ETmax, median difference from placebo (Day 1, 25 mg qd): -6.00 h
Eavg0-24 h, Difference in LS means (Compound I − placebo) (Day 1, 25 mg qd): 51.6%
Epeak, Difference in LS means (Compound I − placebo) (Day 1, 25 mg qd): 35.0%
EAUC0-24 h, Difference in LS means (Compound I − placebo) (Day 1, 75 mg qd): 1218 % · h
EAUC0-24 h, LS means (Day 1, 75 mg qd): 1555 % · h
ETmax (time to reach maximum effect), Median (Day 1, 75 mg qd): 23.8 h
ETmax, median difference from placebo (Day 1, 75 mg qd): 5.77 h
Eavg0-24 h, Difference in LS means (Compound I − placebo) (Day 1, 75 mg qd): 51.2%
Epeak, Difference in LS means (Compound I − placebo) (Day 1, 75 mg qd): 26.7%
EAUC0-24 h, Difference in LS means (Compound I − placebo) (Day 1, 130 mg qd): 1032 % · h
EAUC0-24 h, LS means (Day 1, 130 mg qd): 1369 % · h
ETmax (time to reach maximum effect), Median (Day 1, 130 mg qd): 4.00 h
ETmax, median difference from placebo (Day 1, 130 mg qd): -10.0 h
Eavg0-24 h, Difference in LS means (Compound I − placebo) (Day 1, 130 mg qd): 43.5%
Epeak, Difference in LS means (Compound I − placebo) (Day 1, 130 mg qd): 22.3%
EAUC0-24 h, Difference in LS means (Compound I − placebo) (Day 10, 25 mg qd): 1461 % · h
EAUC0-24 h, LS means (Day 10, 25 mg qd): 1443 % · h
ETmax (time to reach maximum effect), Median (Day 10, 25 mg qd): 5.00 h
ETmax, median difference from placebo (Day 10, 25 mg qd): -7.00 h
Eavg0-24 h, Difference in LS means (Compound I − placebo) (Day 10, 25 mg qd): 61.3%
Epeak, Difference in LS means (Compound I − placebo) (Day 10, 25 mg qd): 45.0%
EAUC0-24 h, Difference in LS means (Compound I − placebo) (Day 10, 75 mg qd): 1560 % · h
EAUC0-24 h, LS means (Day 10, 75 mg qd): 1542 % · h
ETmax (time to reach maximum effect), Median (Day 10, 75 mg qd): 12.0 h
ETmax, median difference from placebo (Day 10, 75 mg qd): -0.0333 h
Eavg0-24 h, Difference in LS means (Compound I − placebo) (Day 10, 75 mg qd): 65.4%
Epeak, Difference in LS means (Compound I − placebo) (Day 10, 75 mg qd): 42.7%
EAUC0-24 h, Difference in LS means (Compound I − placebo) (Day 10, 130 mg qd): 1392 % · h
EAUC0-24 h, LS means (Day 10, 130 mg qd): 1374 % · h
ETmax (time to reach maximum effect), Median (Day 10, 130 mg qd): 4.00 h
ETmax, median difference from placebo (Day 10, 130 mg qd): -6.03 h
Eavg0-24 h, Difference in LS means (Compound I − placebo) (Day 10, 130 mg qd): 58.4%
Epeak, Difference in LS means (Compound I − placebo) (Day 10, 130 mg qd): 40.9%
EAUC0-24 h, Difference in LS means (Compound I − placebo) (Day 28, 25 mg qd): 1281 % · h
EAUC0-24 h, LS means (Day 28, 25 mg qd): 1621 % · h
ETmax (time to reach maximum effect), Median (Day 28, 25 mg qd): 2.00 h
ETmax, median difference from placebo (Day 28, 25 mg qd): -6.00 h
Eavg0-24 h, Difference in LS means (Compound I − placebo) (Day 28, 25 mg qd): 53.4%
Epeak, Difference in LS means (Compound I − placebo) (Day 28, 25 mg qd): 18.0%
EAUC0-24 h, Difference in LS means (Compound I − placebo) (Day 28, 75 mg qd): 1356 % · h
EAUC0-24 h, LS means (Day 28, 75 mg qd): 1696 % · h
ETmax (time to reach maximum effect), Median (Day 28, 75 mg qd): 10.0 h
ETmax, median difference from placebo (Day 28, 75 mg qd): 0.0333 h
Eavg0-24 h, Difference in LS means (Compound I − placebo) (Day 28, 75 mg qd): 56.4%
Epeak, Difference in LS means (Compound I − placebo) (Day 28, 75 mg qd): 21.2%
EAUC0-24 h, Difference in LS means (Compound I − placebo) (Day 28, 130 mg qd): 1192 % · h
EAUC0-24 h, LS means (Day 28, 130 mg qd): 1531 % · h
ETmax (time to reach maximum effect), Median (Day 28, 130 mg qd): 12.0 h
ETmax, median difference from placebo (Day 28, 130 mg qd): 0.177 h
Eavg0-24 h, Difference in LS means (Compound I − placebo) (Day 28, 130 mg qd): 49.6%
Epeak, Difference in LS means (Compound I − placebo) (Day 28, 130 mg qd): 13.9%
Emax at 25 mg (24 h, Day 1, 25 mg qd): 90.4%
Emax at 75 mg (24 h, Day 1, 75 mg qd): 82.1%
Emax at 130 mg (24 h, Day 1, 130 mg qd): 77.8%
Emax at 25 mg (240 h, Day 10, 25 mg qd): 83.7%
Emax at 75 mg (240 h, Day 10, 75 mg qd): 81.4%
Emax at 130 mg (240 h, Day 10, 130 mg qd): 79.6%
Emax at 25 mg (672 h, Day 28, 25 mg qd): 84.2%
Emax at 75 mg (672 h, Day 28, 75 mg qd): 87.4%
Emax at 130 mg (672 h, Day 28, 130 mg qd): 80.1%
inhibition at 25 mg (Day 1, 25 mg qd): 65.7%
inhibition at 75 mg (Day 1, 75 mg qd): 65.4%
inhibition at 130 mg (Day 1, 130 mg qd): 57.6%
inhibition at 25 mg (Day 10, 25 mg qd): 60.6%
inhibition at 75 mg (Day 10, 75 mg qd): 64.7%
inhibition at 130 mg (Day 10, 130 mg qd): 57.6%
inhibition at 25 mg (Day 28, 25 mg qd): 67.5%
inhibition at 75 mg (Day 28, 75 mg qd): 70.6%
inhibition at 130 mg (Day 28, 130 mg qd): 63.8%
inhibition of ex-vivo LPS-induced PGE2 release (in words) (multiple oral doses 25 mg to 130 mg qd, Days 1, 10 and 28): marked drug-related inhibition
time by which maximal inhibition was reached (post-dose on Day 1, each dose level (first sampling occasion)): ≤ 30 min
